Experimental data reported in US10392422B2, “Macrocyclic broad spectrum antibiotics” (priority 2014, dated 2019).
Values after ≈ are worked out from the molar mass of the structure shown. Where two headings read alike, the source gives them in different places.

Assays:
Experiment in all cases: MIC, broth micro-dilution technique (CLSI)
[1] = system: MRSA COL (NRS100); type: cell-based, Staphylococcus aureus; conditions: Staphylococcus aureus, 22 h, read-out: MIC (μg/mL) (COL)
Method in brief: (§1)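 Cation-adjusted MHB + 0.002% Tween-80; 10-point 2-fold series starting 64 μg/ml (modified protocol: 4 μg/mL). Final inoculum OD600 0.0005; 35° C, 22 h. MIC per CLSI M07-A8 broth microdilution.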

[2] = system: Escherichia coli MC4100 harboring the IMP4213; type: cell-based; conditions: Escherichia coli, 22 h, 35° C., 22 hours
Method in brief: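 CLSI broth microdilution in cation-adjusted Mueller Hinton broth with 0.002% v/v Tween-80. Compounds were serially 2-fold diluted over 10 concentrations from 64 μg/ml, or from 4 μg/mL in a modified protocol; inoculum at final OD600 0.0005, incubated 35° C for 22 hours.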

[3] = system: Methicillin Resistant Staphylococcus aureus strain USA 300 (NRS384); type: cell-based; conditions: Staphylococcus aureus, 22 h, read-out: MIC (μg/mL) S. aureus
Method in brief: as §1

[4] = Table 1 protocol: serial 2-fold dilutions starting from 64 μg/ml, 35° C., 22 hours
[5] = read-out: MIC (μg/mL) E. coli, Table 1 protocol: serial 2-fold dilutions starting from 64 μg/ml
[6] = Table 2 modified protocol: serial 2-fold dilutions starting from 4 μg/mL, 35° C., 22 hours
[7] = read-out: MIC (μg/mL) E. coli, Table 2 modified protocol: serial 2-fold dilutions starting from 4 μg/mL

Row | Structure (SMILES) | MIC [1, 4] | MIC [2, 5] | MIC [3, 4] | MIC [1] | MIC [3] | MIC [1, 6] | MIC [2, 7] | MIC [3, 6]
1 | CCCCCCCCCCS(=O)(=O)N[C@@H](CCCCN)C(=O)N(C)[C@@H]1C(=O)N[C@@H](C)C(=O)N[C@H](C(=O)N[C@@H](C)C(=O)N2CCC[C@H]2C(N)=O)Cc2ccc(O)c(c2)-c2cc1ccc2O [Compound 224] | 0.13 µg/mL (≈ 0.142 µM) | 64 µg/mL (≈ 70.1 µM) | 16 µg/mL (≈ 17.5 µM) | – | – | – | – | –
2 | C[C@@H]1NC(=O)[C@@H](N(C)C(=O)[C@H](CCCCN)NS(=O)(=O)c2ccc(-c3ccc(Cl)cc3)cc2)c2ccc(O)c(c2)-c2cc(ccc2O)C[C@@H](C(=O)N[C@@H](C)C(=O)N2CCC[C@H]2C(N)=O)NC1=O [Compound 225] | 6 µg/mL (≈ 6.25 µM) | > 64 µg/mL | 23 µg/mL (≈ 24 µM) | – | – | – | – | –
3 | CC(=O)[C@H](C)NC(=O)[C@@H]1Cc2ccc(O)c(c2)-c2cc(cc(C#CCN)c2OCCN)[C@H](N(C)C(=O)[C@H](CCCCN)NC(=O)c2ccc(-c3ccc(Cl)cc3)cc2)C(=O)N[C@@H](C)C(=O)N1 [Compound 226] | 0.25 µg/mL (≈ 0.271 µM) | 4 µg/mL (≈ 4.34 µM) | 4 µg/mL (≈ 4.34 µM) | – | – | – | – | –
4 | C[C@@H]1NC(=O)[C@@H](N(C)C(=O)[C@H](CCCCN)NC(=O)c2ccc(-c3ccc(Cl)cc3)cc2)c2ccc(O)c(c2)-c2cc(ccc2O)C[C@@H](C(=O)N[C@@H](C)C(=O)C(=O)Nc2ccn[nH]2)NC1=O [Compound 227] | 2 µg/mL (≈ 2.17 µM) | > 64 µg/mL | 12 µg/mL (≈ 13 µM) | – | – | – | – | –
5 | C[C@@H]1NC(=O)[C@@H](N(C)C(=O)[C@H](CCCCN)NC(=O)c2ccc(-c3ccc(Cl)cc3)cc2)c2ccc(O)c(c2)-c2cc(ccc2O)C[C@@H](C(=O)N[C@@H](C)C(=O)C(F)(F)C(N)=O)NC1=O [Compound 228] | 2 µg/mL (≈ 2.21 µM) | 15 µg/mL (≈ 16.6 µM) | 5.3 µg/mL (≈ 5.86 µM) | – | – | – | – | –
6 | C[C@@H]1NC(=O)[C@@H](N(C)C(=O)[C@H](CCCCN)NC(=O)c2ccc(-c3ccc(Cl)cc3)cc2)c2ccc(O)c(c2)-c2cc(ccc2O)C[C@@H](C(=O)N[C@@H](C)C(=O)c2c[nH]cn2)NC1=O [Compound 229] | 1 µg/mL (≈ 1.14 µM) | 24 µg/mL (≈ 27.4 µM) | 4 µg/mL (≈ 4.56 µM) | – | – | – | – | –
7 | C[C@@H]1NC(=O)[C@@H](N(C)C(=O)[C@H](CCCCN)NC(=O)c2ccc(-c3ccc(Cl)cc3)cc2)c2ccc(O)c(c2)-c2cc(ccc2O)C[C@@H](C(=O)N[C@@H](C)C(=O)c2c[nH]nn2)NC1=O [Compound 230] | 8 µg/mL (≈ 9.11 µM) | > 64 µg/mL | 64 µg/mL (≈ 72.9 µM) | – | – | – | – | –
8 | C[C@@H]1NC(=O)[C@@H](N(C)C(=O)[C@H](CCCCN)NC(=O)c2ccc(-c3ccc(Cl)cc3)cc2)c2ccc(O)c(c2)-c2cc(ccc2O)C[C@@H](C(=O)N[C@@H](C)C(=O)c2nnc[nH]2)NC1=O [Compound 231] | 1 µg/mL (≈ 1.14 µM) | 8 µg/mL (≈ 9.11 µM) | 6 µg/mL (≈ 6.83 µM) | – | – | – | – | –
9 | C[C@@H]1NC(=O)[C@@H](N(C)C(=O)[C@H](CCCCN)NC(=O)c2ccc(-c3ccc(Cl)cc3)cc2)c2ccc(O)c(c2)-c2cc(ccc2O)C[C@@H](C(=O)N[C@@H](C)C(=O)c2ncc[nH]2)NC1=O [Compound 232] | 1 µg/mL (≈ 1.14 µM) | 8 µg/mL (≈ 9.12 µM) | 4 µg/mL (≈ 4.56 µM) | – | – | – | – | –
10 | CCC(=O)[C@H](C)NC(=O)[C@@H]1Cc2ccc(O)c(c2)-c2cc(ccc2O)[C@H](N(C)C(=O)[C@H](CCCCN)NC(=O)c2ccc(-c3ccc(Cl)cc3)cc2)C(=O)N[C@@H](C)C(=O)N1 [Compound 233] | 4 µg/mL (≈ 4.77 µM) | 32 µg/mL (≈ 38.1 µM) | 24 µg/mL (≈ 28.6 µM) | – | – | – | – | –
11 | CCN(CC(N)=O)C(=O)[C@H](C)NC(=O)[C@@H]1Cc2ccc(O)c(c2)-c2cc(ccc2O)[C@H](N(C)C(=O)[C@H](CCCCN)NC(=O)c2ccc(-c3ccc(Cl)cc3)cc2)C(=O)N[C@@H](C)C(=O)N1 [Compound 234] | 8 µg/mL (≈ 8.78 µM) | 64 µg/mL (≈ 70.2 µM) | 64 µg/mL (≈ 70.2 µM) | – | – | – | – | –
12 | C[C@@H]1NC(=O)[C@@H](N(C)C(=O)[C@H](CCCCN)NC(=O)c2ccc(-c3ccc(Cl)cc3)cc2)c2ccc(O)c(c2)-c2cc(ccc2O)C[C@@H](C(=O)N[C@@H](C)C(=O)c2ccn[nH]2)NC1=O [Compound 235] | 2 µg/mL (≈ 2.28 µM) | 32 µg/mL (≈ 36.5 µM) | 4 µg/mL (≈ 4.56 µM) | – | – | – | – | –
13 | C[C@@H]1NC(=O)[C@@H](N(C)C(=O)[C@H](CCCCN)NC(=O)c2ccc(-c3ccc(Cl)cc3)cc2)c2ccc(O)c(c2)-c2cc(ccc2O)C[C@@H](C(=O)NC/C=C/S(C)(=O)=O)NC1=O [Compound 236] | – | > 64 µg/mL | – | 8 µg/mL (≈ 9.16 µM) | 48 µg/mL (≈ 55 µM) | – | – | –
14 | Cc1nc(C(=O)[C@H](C)NC(=O)[C@@H]2Cc3ccc(O)c(c3)-c3cc(ccc3O)[C@H](N(C)C(=O)[C@H](CCCCN)NC(=O)c3ccc(-c4ccc(Cl)cc4)cc3)C(=O)N[C@@H](C)C(=O)N2)no1 [Compound 237] | 4 µg/mL (≈ 4.48 µM) | 8 µg/mL (≈ 8.95 µM) | 12 µg/mL (≈ 13.4 µM) | – | – | – | – | –
15 | CNC(=O)C(=O)CNC(=O)[C@@H]1Cc2ccc(O)c(c2)-c2cc(ccc2O)[C@H](N(C)C(=O)[C@H](CCCCN)NC(=O)c2ccc(-c3ccc(Cl)cc3)cc2)C(=O)N[C@@H](C)C(=O)N1 [Compound 238] | 8 µg/mL (≈ 9.36 µM) | 64 µg/mL (≈ 74.9 µM) | 32 µg/mL (≈ 37.5 µM) | – | – | – | – | –
16 | C[C@@H]1NC(=O)[C@@H](N(C)C(=O)[C@H](CCCCN)NC(=O)c2ccc(-c3ccc(Cl)cc3)cc2)c2ccc(O)c(c2)-c2cc(ccc2O)C[C@@H](C(=O)NCC(=O)C(=O)O)NC1=O [Compound 239] | 4 µg/mL (≈ 4.75 µM) | > 4 µg/mL | > 4 µg/mL | – | – | – | – | –
17 | C[C@H](NC(=O)[C@@H]1Cc2ccc(O)c(c2)-c2cc(ccc2O)[C@H](N(C)C(=O)[C@H](CCCCN)NC(=O)c2ccc(-c3ccc(Cl)cc3)cc2)C(=O)N[C@@H](C)C(=O)N1)C(=O)CNC=O [Compound 240] | 2 µg/mL (≈ 2.3 µM) | 48 µg/mL (≈ 55.3 µM) | 4 µg/mL (≈ 4.61 µM) | – | – | – | – | –
18 | C[C@H](NC(=O)[C@@H]1Cc2ccc(O)c(c2)-c2cc(ccc2O)[C@H](N(C)C(=O)[C@H](CCCCN)NC(=O)c2ccc(-c3ccc(Cl)cc3)cc2)C(=O)N[C@@H](C)C(=O)N1)C(=O)Cn1ccnn1 [Compound 241] | 1.5 µg/mL (≈ 1.68 µM) | 16 µg/mL (≈ 17.9 µM) | 4 µg/mL (≈ 4.48 µM) | – | – | – | – | –
19 | C[C@@H]1NC(=O)[C@@H](N(C)C(=O)[C@H](CCCCN)NC(=O)c2ccc(-c3ccc(Cl)cc3)cc2)c2ccc(O)c(c2)-c2cc(ccc2O)C[C@@H](C(=O)N[C@@H](C)C(=O)C(=O)Nc2cn[nH]c2)NC1=O [Compound 242] | – | – | – | – | – | 4 µg/mL (≈ 4.35 µM) | > 4 µg/mL | > 4 µg/mL
20 | C[C@@H]1NC(=O)[C@@H](N(C)C(=O)[C@H](CCCCN)NC(=O)c2ccc(-c3ccc(Cl)cc3)cc2)c2ccc(O)c(c2)-c2cc(ccc2O)C[C@@H](C(=O)N[C@@H](C)C(=O)N(CCO)CC(N)=O)NC1=O [Compound 243] | – | – | – | – | – | > 4 µg/mL | > 4 µg/mL | > 4 µg/mL
21 | C[C@@H]1NC(=O)[C@@H](N(C)C(=O)[C@H](CCCCN)NC(=O)c2ccc(-c3ccc(Cl)cc3)cc2)c2ccc(O)c(c2)-c2cc(ccc2O)C[C@@H](C(=O)NCC(=O)c2nnn[nH]2)NC1=O [Compound 244] | – | – | – | – | – | 4 µg/mL (≈ 4.62 µM) | > 4 µg/mL | > 4 µg/mL
22 | C[C@@H]1NC(=O)[C@@H](N(C)C(=O)[C@H](CCCCN)NC(=O)c2ccc(-c3ccc(Cl)cc3)cc2)c2ccc(O)c(c2)-c2cc(ccc2O)C[C@@H](C(=O)NCC(=O)c2ncc[nH]2)NC1=O [Compound 245] | – | – | – | – | – | 2 µg/mL (≈ 2.32 µM) | > 4 µg/mL | 4 µg/mL (≈ 4.63 µM)
23 | CC(NC(=O)[C@@H]1Cc2ccc(O)c(c2)-c2cc(ccc2O)[C@H](N(C)C(=O)[C@H](CCCCN)NC(=O)c2ccc(-c3ccc(Cl)cc3)cc2)C(=O)N[C@@H](C)C(=O)N1)C(=O)Cn1cc(C(N)=O)nn1 (stereo partly drawn) [Compound 246] | – | – | – | – | – | 3 µg/mL (≈ 3.21 µM) | > 4 µg/mL | 4 µg/mL (≈ 4.28 µM)
24 | C[C@H](NC(=O)[C@@H]1Cc2ccc(O)c(c2)-c2cc(ccc2O)[C@H](N(C)C(=O)[C@H](CCCCN)NC(=O)c2ccc(-c3ccc(Cl)cc3)cc2)C(=O)N[C@@H](C)C(=O)N1)C(=O)CF [Compound 247] | – | – | – | – | – | 1 µg/mL (≈ 1.19 µM) | > 4 µg/mL | 2 µg/mL (≈ 2.37 µM)
25 | CCOS(=O)(=O)/C=C/[C@H](C)NC(=O)[C@@H]1Cc2ccc(O)c(c2)-c2cc(ccc2O)[C@H](N(C)C(=O)[C@H](CCCCN)NC(=O)c2ccc(-c3ccc(Cl)cc3)cc2)C(=O)N[C@@H](C)C(=O)N1 [Compound 248] | – | > 64 µg/mL | – | 4 µg/mL (≈ 4.36 µM) | 21 µg/mL (≈ 22.9 µM) | – | – | –
26 | C[C@@H]1NC(=O)[C@@H](N(C)C(=O)[C@H](CCCCN)NC(=O)c2ccc(-c3ccc(Cl)cc3)cc2)c2ccc(O)c(c2)-c2cc(ccc2O)C[C@@H](C(=O)N[C@@H](C)/C=C/S(N)(=O)=O)NC1=O [Compound 249] | – | 48 µg/mL (≈ 54 µM) | – | 16 µg/mL (≈ 18 µM) | 32 µg/mL (≈ 36 µM) | – | – | –
27 | C[C@@H]1NC(=O)[C@@H](N(C)C(=O)[C@H](CCCCN)NC(=O)c2ccc(-c3ccc(Cl)cc3)cc2)c2ccc(O)c(c2)-c2cc(ccc2O)C[C@@H](C(=O)N[C@@H](C)C(=O)c2ccccn2)NC1=O [Compound 250] | 11 µg/mL (≈ 12.4 µM) | 64 µg/mL (≈ 72 µM) | 64 µg/mL (≈ 72 µM) | – | – | – | – | –
28 | COC(=O)/C=C/[C@H](C)NC(=O)[C@@H]1Cc2ccc(O)c(c2)-c2cc(ccc2O)[C@H](N(C)C(=O)[C@H](CCCCN)NC(=O)c2ccc(-c3ccc(Cl)cc3)cc2)C(=O)N[C@@H](C)C(=O)N1 [Compound 251] | – | > 64 µg/mL | – | 16 µg/mL (≈ 18.4 µM) | 64 µg/mL (≈ 73.8 µM) | – | – | –
29 | C[C@@H]1NC(=O)[C@@H](N(C)C(=O)[C@H](CCCCN)NC(=O)c2ccc(-c3ccc(Cl)cc3)cc2)c2ccc(O)c(c2)-c2cc(ccc2O)C[C@@H](C(=O)NCC(=O)C2CO2)NC1=O (stereo partly drawn) [Compound 252] | – | – | – | – | – | > 4 µg/mL | > 4 µg/mL | > 4 µg/mL
